From ChEMBL document CHEMBL5260833, “An overview of quinazolines: Pharmacological significance and recent developments” (Eur J Med Chem, 2018)
One block for each compound: values may come before it.

Legend:
Canis familiaris = experiment: Antiplatelet activity in iv dosed dog assessed as platelet aggregation; type: functional, organism-based; settings: Canis lupus familiaris
[1] = system: Human immunodeficiency virus 1; experiment: Antiviral activity against HIV-1 infected in human MT4 cells assessed as protection against virus-induced cytotoxicity relative to control; type: functional; set-up: concentration or dose not given beside the values
[2] = system: Human immunodeficiency virus 2; experiment: Antiviral activity against HIV-2 infected in human MT4 cells assessed as protection against virus-induced cytotoxicity relative to control; type: functional; set-up: concentration or dose not given beside the values
Oryctolagus cuniculus [3] = species on record: Oryctolagus cuniculus; experiment: Antihypertensive activity in rabbit aorta assessed as vasodilation; type: functional
Mus musculus [4] = species on record: Mus musculus; experiment: Sedative hypnotic activity in mouse; type: functional; set-up: concentration or dose not given beside the values
Mus musculus [5] = experiment: Anticonvulsant activity in ip dosed mouse assessed as reduction in clonus phase; type: functional
MDA-MB-231 = experiment: Anticancer activity against human MDA-MB-231 cells assessed as cell growth inhibition incubated for 24 hrs by MTT assay; type: functional, cell-based; settings: MDA-MB-231, 24 h
HeLa = experiment: Anticancer activity against human HeLa cells assessed as cell growth inhibition incubated for 24 hrs by MTT assay; type: functional, cell-based
[6] = Inhibition of HCV RNA IRES IIa by FRET assay; set-up: species or system Hepacivirus hominis
Oryctolagus cuniculus [7] = experiment: Antihypertensive activity in po dosed rabbit assessed as decrease in 30mmhg of systolic blood pressure measured after 4 to 6 hrs; type: functional; settings: time 4-6 hrs
CCRF-CEM = experiment: Anticancer activity against human CCRF-CEM cell assessed as cell growth inhibition measured after 120 hrs; type: functional, cell-based
WIL2 = experiment: Anticancer activity against human WIL2 cell assessed as cell growth inhibition measured after 120 hrs; type: functional, cell-based; settings: WIL2, 120 h
[8] = target: 5-hydroxytryptamine receptor 2A (Homo sapiens, UniProt P28223); experiment: Inhibition of 5-HT2A (unknown origin) assessed as inhibition constant
Chain of 5-hydroxytryptamine receptor 2A (P28223 whole entry): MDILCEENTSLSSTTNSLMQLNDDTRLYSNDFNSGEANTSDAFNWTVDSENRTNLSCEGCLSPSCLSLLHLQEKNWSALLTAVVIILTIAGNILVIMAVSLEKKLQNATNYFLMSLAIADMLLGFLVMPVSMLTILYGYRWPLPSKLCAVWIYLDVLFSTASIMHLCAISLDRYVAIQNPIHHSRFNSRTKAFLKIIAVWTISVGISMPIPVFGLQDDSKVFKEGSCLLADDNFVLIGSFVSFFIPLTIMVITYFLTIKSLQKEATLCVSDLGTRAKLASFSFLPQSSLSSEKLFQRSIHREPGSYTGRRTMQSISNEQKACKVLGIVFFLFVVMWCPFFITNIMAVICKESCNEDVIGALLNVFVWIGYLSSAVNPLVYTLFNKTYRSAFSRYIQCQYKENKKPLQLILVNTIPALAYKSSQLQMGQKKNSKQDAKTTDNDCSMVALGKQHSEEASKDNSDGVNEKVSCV

Mus musculus [9] = experiment: Anticonvulsant activity in ip dosed mouse assessed as reduction in tonus phase; type: functional
Rattus norvegicus = experiment: Antiinflammatory activity in carrageenan induced rat at assessed as reduction in paw edema 50 mg/kg, ip measured after […] relative to control; type: functional; set-up: scale not given: the % may be the effect or the level left
Cytomegalovirus = experiment: Antiviral activity against Cytomegalovirus; settings: Human betaherpesvirus 5
Mus musculus [10] = experiment: Analgesic activity in mouse at 100 mg/kg, ip measured after 30 mins relative to control; type: functional; settings: 0.5 h
[11] = target: Prostaglandin G/H synthase 2 (Homo sapiens) (UniProt P35354); experiment: Inhibition of COXII (unknown origin) relative to control; settings: concentration not given here
Chain of Prostaglandin G/H synthase 2 (Homo sapiens) (P35354 whole entry): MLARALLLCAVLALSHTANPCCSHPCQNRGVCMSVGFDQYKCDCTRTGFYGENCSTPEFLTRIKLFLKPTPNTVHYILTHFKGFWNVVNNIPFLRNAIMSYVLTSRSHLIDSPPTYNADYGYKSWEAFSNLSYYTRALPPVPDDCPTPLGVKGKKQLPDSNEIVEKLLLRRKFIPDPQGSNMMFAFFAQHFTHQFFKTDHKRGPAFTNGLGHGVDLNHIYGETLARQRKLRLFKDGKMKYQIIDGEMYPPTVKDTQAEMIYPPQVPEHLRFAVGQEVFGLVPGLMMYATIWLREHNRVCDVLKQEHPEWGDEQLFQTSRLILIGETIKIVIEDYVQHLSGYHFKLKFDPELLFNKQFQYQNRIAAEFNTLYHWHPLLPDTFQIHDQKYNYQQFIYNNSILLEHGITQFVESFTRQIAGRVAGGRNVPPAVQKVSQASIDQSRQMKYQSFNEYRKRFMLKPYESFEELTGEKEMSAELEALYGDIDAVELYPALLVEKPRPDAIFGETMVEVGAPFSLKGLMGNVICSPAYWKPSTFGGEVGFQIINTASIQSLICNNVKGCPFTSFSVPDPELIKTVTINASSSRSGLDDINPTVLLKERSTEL

Mus musculus [12] = experiment: Analgesic activity in […] albino mouse at 20 mg/kg, po measured after 2 hrs by Tail-Flick technique relative to control; type: functional
[13] = target: Histamine H2 receptor (Homo sapiens) (UniProt P25021); experiment: Inhibition of histamine h2 (unknown origin)
Chain of Histamine H2 receptor (Homo sapiens) (P25021 whole entry): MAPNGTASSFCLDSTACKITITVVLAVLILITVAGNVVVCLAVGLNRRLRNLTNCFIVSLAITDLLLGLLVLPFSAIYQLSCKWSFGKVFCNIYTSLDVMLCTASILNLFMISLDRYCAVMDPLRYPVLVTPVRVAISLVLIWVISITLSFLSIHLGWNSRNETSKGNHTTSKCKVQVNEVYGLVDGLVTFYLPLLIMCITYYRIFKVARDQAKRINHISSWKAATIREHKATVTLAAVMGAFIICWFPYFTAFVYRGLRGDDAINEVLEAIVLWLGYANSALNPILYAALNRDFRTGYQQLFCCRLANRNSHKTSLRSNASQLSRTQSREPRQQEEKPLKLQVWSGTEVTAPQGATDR

[14] = system: Human immunodeficiency virus; experiment: Antiviral activity against HIV infected in human H9 cells; type: functional, organism-based; settings: Human immunodeficiency virus 1, H9
[15] = Therapeutic index, ratio of IC50 for antiviral activity against HIV infected in human H9 cells to EC50 for antiviral activity against HIV infected in human H9 cells; type: toxicity, cell-based; settings: human immunodeficiency virus, H9 cells infected with HIV; read-out: Ratio IC50/EC50

IC50 (Canis familiaris): 210 nM
SMILES: CCCCS(=O)(=O)NC(CC#Cc1ccc2[nH]c(=O)n(CCC3CCNCC3)c(=O)c2c1)C(=O)O (stereo not given)

SMILES: Cc1nc2ccccc2c(=O)n1NCN1CCOCC1
Activity [1]: 21%
Activity [2]: 25%

SMILES: CC(=O)OC1C([N+](=O)[O-])c2ccc(Cl)cc2C(=O)N1[N+](=O)[O-] (stereo not given)
pD2 (Oryctolagus cuniculus [3]): 5.4

SMILES: CN(C)CCC(c1ccc(Cl)cc1)c1ccccn1 (stereo not given) [CHLORPHENIRAMINE]
Activity (Mus musculus [4]): 25%

SMILES: CCCc1nnc2n(-c3cccc(C)c3)c(=O)c3ccccc3n12
Activity (Mus musculus [4]): 4%

SMILES: Oc1nc(-c2ccc(Cl)cc2)nc2cc3c(cc12)OCO3
ED50 (Mus musculus [5]): 32.7 µmol/kg

IC50 (MDA-MB-231): 1850 nM
IC50 (HeLa): 1850 nM
SMILES: Cc1ccc2nc(SCCCN3C(=O)c4ccccc4C3=O)n(Cc3ccccc3)c(=O)c2c1

SMILES: Cc1cccc(-n2c(=O)c3ccccc3n3c(CCl)nnc23)c1
Activity (Mus musculus [4]): 4%

EC50 [6]: 650 µM
SMILES: NC1=NCc2ccccc2C(=O)N1

SMILES: Clc1cccc(Cl)c1NC1=NCCN1 [CLONIDINE]
ED30 (Oryctolagus cuniculus [7]): 0.065 mg/kg

SMILES: O=c1c2ccccc2nc(S)n1NCNc1ccccn1
Activity [1]: 25%
Activity [2]: 27%

SMILES: CC(=O)OC1C([N+](=O)[O-])c2ccccc2C(=O)N1[N+](=O)[O-] (stereo not given)
pD2 (Oryctolagus cuniculus [3]): 5.36

IC50 (CCRF-CEM): 2100 nM
SMILES: COC(=O)CCC(NC(=O)c1ccc(NCc2ccc3nc(C)[nH]c(=O)c3c2Cl)s1)C(=O)OC (stereo not given)
IC50 (WIL2): 1800 nM

IC50 (Canis familiaris): 210 nM
SMILES: CCCCS(=O)(=O)NC(CCCc1ccc2c(c1)c(=O)n(CCC1CCNCC1)c(=O)n2Cc1ccncc1)C(=O)O (stereo not given)

Ki [8]: 2.63 nM
SMILES: Cc1nc2c(c(=O)n1CCN1CCC(C(=O)c3ccc(F)cc3)CC1)CCCC2

EC50 [6]: 420 µM
SMILES: CC1(C)NC(N)=Nc2ccccc21

EC50 [6]: 100 µM
SMILES: NC1=Nc2ccccc2C2(CC2)N1

SMILES: O=c1c2ccccc2nc(S)n1NCn1cnc2ccccc21
Activity [1]: 25%
Activity [2]: 27%

SMILES: Nc1ccc(-c2nc(S)c3cc4c(cc3n2)OCO4)cc1
ED50 (Mus musculus [9]): 36.6 µmol/kg
ED50 (Mus musculus [5]): 68.3 µmol/kg

SMILES: O=c1c2ccccc2nc(-c2ccccc2)n1-c1nc2ccccc2s1
Activity (Rattus norvegicus): 30.3%

IC50 (Canis familiaris): 210 nM
SMILES: CCCCS(=O)(=O)NC(CCCc1ccc2c(c1)c(=O)n(CCC1CCNCC1)c(=O)n2Cc1ccccc1)C(=O)O (stereo not given)

SMILES: O=c1c2ccccc2nc(S)n1NCNc1ccccc1
Activity [1]: 25%
Activity [2]: 27%

IC50 (Canis familiaris): 210 nM
SMILES: CCCCS(=O)(=O)NC(CCCc1ccc2c(c1)c(=O)n(CCC1CCNCC1)c(=O)n2C)C(=O)O (stereo not given)

SMILES: Oc1nc(-c2ccc(F)cc2)nc2cc3c(cc12)OCO3
ED50 (Mus musculus [9]): 17.7 µmol/kg

EC50 (Cytomegalovirus): 2600 nM
SMILES: Nc1nc2c(ncn2COC(CO)CO)c(=O)[nH]1 [GANCICLOVIR]

SMILES: Cc1nc2ccccc2c(=O)n1NCN(C)C
Activity [1]: 21%
Activity [2]: 25%

inhibition [11]: 90%
SMILES: COc1ccccc1C1SCC(=O)N1NCC(=O)Cc1nc2ccccc2c(=O)n1-c1c(C)[nH]c2ccccc12 (stereo not given)
Activity (Mus musculus [10]): 80%
Activity (Mus musculus [12]): 80%

IC50 (MDA-MB-231): 1850 nM
IC50 (HeLa): 1850 nM
SMILES: COc1cccc2c(=O)n(Cc3ccccc3)c(SCCCN3C(=O)c4ccccc4C3=O)nc12

IC50 (CCRF-CEM): 2100 nM
SMILES: COC(=O)CCC(NC(=O)c1ccc(NCc2ccc3nc(N)[nH]c(=O)c3c2Cl)s1)C(=O)OC (stereo not given)
IC50 (WIL2): 1800 nM

pKb [13]: 7.39
SMILES: O=c1[nH]c(NCCCOc2cccc(CN3CCCCC3)c2)nc2ccccc12

EC50 [14]: 7.59 µM
IC50 [14]: 100 µM
SMILES: COc1cc2nc(-c3ccc4ccccc4c3)nc(O)c2cc1OC
selectivity ratio [15]: 13.2
